# Measurements reported in patent US20240044899A1, “BIOMARKERS FOR FIMEPINOSTAT THERAPY” (Curis, Inc, priority 2021, published 2024).
# Legend:
# [1] = Phase 1 and phase 2 clinical studies of fimepinostat, treatment-emergent adverse events (CTCAE v4.03); assay type: in vivo, human; conditions: for TEAE Abdominal pain, patients n (%) / TEAE Anemia, patients n (%) / TEAE Arthralgia, patients n (%) / TEAE Back pain, patients n (%) / TEAE Constipation, patients n (%) / TEAE Cough, patients n (%) / TEAE Decreased appetite, patients n (%) / TEAE Diarrhea, patients n (%) / TEAE Dizziness, patients n (%) / TEAE Dyspnea, patients n (%) / TEAE Edema peripheral, patients n (%) / TEAE Fatigue, patients n (%) / TEAE Hypokalemia, patients n (%) / TEAE Hypomagnesaemia, patients n (%) / TEAE Hypophosphatemia, patients n (%) / TEAE Lymphocyte count decreased, patients n (%) / TEAE Nausea, patients n (%) / TEAE Neutropenia, patients n (%) / TEAE Pain in extremity, patients n (%) / TEAE Pyrexia, patients n (%) / TEAE Thrombocytopenia, patients n (%) / TEAE Upper respiratory tract infection, patients n (%) / TEAE Vomiting, patients n (%) / TEAE Weight decreased, patients n (%) / TEAE White blood cell count decreased, patients n (%): intention to treat population (n = 58)
# Procedure: Patients received fimepinostat capsules (Pharmatek Laboratories Inc., San Diego, CA, USA) orally, within 30 minutes of a meal, in 21-day cycles until disease progression was documented or other discontinuation criteria were met. In the phase 2 protocol, change in dose and/or schedule intensity of fimepinostat were allowed as per protocol due to toxicity. Safety and tolerability were assessed by the incidence and severity of adverse events as determined by NCI Common Terminology Criteria for Adverse Events (CTCAE v4.03) in both protocols.
# The intention to-treat-population included al patients from both protocols who received at least one dose of fimepinostat. The evaluable population includes all patients who received at least one dose of study drug (phase 1) or one full cycle of treatment (phase 2) and completed at least one post-baseline disease assessment. Patients were re-staged according to the Revised Response Criteria for Malignant Lymphoma.^18
# All patients received fimepinostat 60 mg by mouth 5 days on/2 days off as the starting dose with the exception of 1 patient enrolled in the phase 1 protocol who received 60 mg by mouth three times weekly. Three patients enrolled in the phase 1 protocol received concurrent rituximab.
# Treatment-emergent adverse events (TEAE) occurring per patient by highest grade experienced with a frequency of ≥10% are listed in Table 5. The most common TEAE of any grade were diarrhea (72%), nausea (52%) and thrombocytopenia (38%). The most common grade 3 or 4 adverse events were […], neutropenia (15%), diarrhea (12%) and anemia (12%). Three patients experienced grade 5 TEAE: respiratory failure deemed unlikely related to treatment in 1 patient, sepsis deemed not related to treatment in 1 patient and tracheal obstruction deemed not related to treatment in 1 patient. Two non-evaluable patients discontinued treatment due to TEAE: grade 2 vomiting deemed related to treatment occurring in 1 patient and grade 4 hypercalcemia deemed unlikely related to treatment in 1 patient.
# [2] = system: DLBCL patients with MYC-altered disease; conditions: 11 evaluable DLBCL patients with MYC-altered disease, phase 1, cited from earlier work
# [3] = system: DLBCL xenografts with MYC alterations; conditions: cited from earlier work
smiles,measurement,setting,value
"COc1ccc(-c2nc(N3CCOCC3)c3sc(CN(C)c4ncc(C(=O)NO)cn4)cc3n2)cn1 [fimepinostat, Fimepinostat]","TEAE Abdominal pain, patients n (%)",[1]; Grade 3,3 (5)
same,"TEAE Anemia, patients n (%)",[1]; Grade 3,7 (12)
same,"TEAE Arthralgia, patients n (%)",[1]; Grade 3,0 (0)
same,"TEAE Back pain, patients n (%)",[1]; Grade 3,1 (2)
same,"TEAE Constipation, patients n (%)",[1]; Grade 3,0 (0)
same,"TEAE Cough, patients n (%)",[1]; Grade 3,0 (0)
same,"TEAE Decreased appetite, patients n (%)",[1]; Grade 3,0 (0)
same,"TEAE Diarrhea, patients n (%)",[1]; Grade 3,7 (12)
same,"TEAE Dizziness, patients n (%)",[1]; Grade 3,0 (0)
same,"TEAE Dyspnea, patients n (%)",[1]; Grade 3,3 (5)
same,"TEAE Edema peripheral, patients n (%)",[1]; Grade 3,0 (0)
same,"TEAE Fatigue, patients n (%)",[1]; Grade 3,1 (2)
same,"TEAE Hypokalemia, patients n (%)",[1]; Grade 3,6 (10)
same,"TEAE Hypomagnesaemia, patients n (%)",[1]; Grade 3,0 (0)
same,"TEAE Hypophosphatemia, patients n (%)",[1]; Grade 3,4 (7)
same,"TEAE Lymphocyte count decreased, patients n (%)",[1]; Grade 3,3 (5)
same,"TEAE Nausea, patients n (%)",[1]; Grade 3,0 (0)
same,"TEAE Neutropenia, patients n (%)",[1]; Grade 3,7 (12)
same,"TEAE Pain in extremity, patients n (%)",[1]; Grade 3,1 (2)
same,"TEAE Pyrexia, patients n (%)",[1]; Grade 3,1 (2)
same,"TEAE Thrombocytopenia, patients n (%)",[1]; Grade 3,11 (19)
same,"TEAE Upper respiratory tract infection, patients n (%)",[1]; Grade 3,0 (0)
same,"TEAE Vomiting, patients n (%)",[1]; Grade 3,1 (2)
same,"TEAE Weight decreased, patients n (%)",[1]; Grade 3,1 (2)
same,"TEAE White blood cell count decreased, patients n (%)",[1]; Grade 3,3 (5)
same,"TEAE Abdominal pain, patients n (%)",[1]; Grade 4,0 (0)
same,"TEAE Anemia, patients n (%)",[1]; Grade 4,0 (0)
same,"TEAE Arthralgia, patients n (%)",[1]; Grade 4,0 (0)
same,"TEAE Back pain, patients n (%)",[1]; Grade 4,0 (0)
same,"TEAE Constipation, patients n (%)",[1]; Grade 4,0 (0)
same,"TEAE Cough, patients n (%)",[1]; Grade 4,0 (0)
same,"TEAE Decreased appetite, patients n (%)",[1]; Grade 4,0 (0)
same,"TEAE Diarrhea, patients n (%)",[1]; Grade 4,0 (0)
same,"TEAE Dizziness, patients n (%)",[1]; Grade 4,0 (0)
same,"TEAE Dyspnea, patients n (%)",[1]; Grade 4,0 (0)
same,"TEAE Edema peripheral, patients n (%)",[1]; Grade 4,0 (0)
same,"TEAE Fatigue, patients n (%)",[1]; Grade 4,0 (0)
same,"TEAE Hypokalemia, patients n (%)",[1]; Grade 4,0 (0)
same,"TEAE Hypomagnesaemia, patients n (%)",[1]; Grade 4,0 (0)
same,"TEAE Hypophosphatemia, patients n (%)",[1]; Grade 4,0 (0)
same,"TEAE Lymphocyte count decreased, patients n (%)",[1]; Grade 4,0 (0)
same,"TEAE Nausea, patients n (%)",[1]; Grade 4,0 (0)
same,"TEAE Neutropenia, patients n (%)",[1]; Grade 4,2 (3)
same,"TEAE Pain in extremity, patients n (%)",[1]; Grade 4,0 (0)
same,"TEAE Pyrexia, patients n (%)",[1]; Grade 4,0 (0)
same,"TEAE Thrombocytopenia, patients n (%)",[1]; Grade 4,3 (5)
same,"TEAE Upper respiratory tract infection, patients n (%)",[1]; Grade 4,0 (0)
same,"TEAE Vomiting, patients n (%)",[1]; Grade 4,0 (0)
same,"TEAE Weight decreased, patients n (%)",[1]; Grade 4,0 (0)
same,"TEAE White blood cell count decreased, patients n (%)",[1]; Grade 4,1 (2)
same,"TEAE Abdominal pain, patients n (%)",[1]; Grades 1-2,6 (10)
same,"TEAE Anemia, patients n (%)",[1]; Grades 1-2,6 (10)
same,"TEAE Arthralgia, patients n (%)",[1]; Grades 1-2,7 (12)
same,"TEAE Back pain, patients n (%)",[1]; Grades 1-2,5 (9)
same,"TEAE Constipation, patients n (%)",[1]; Grades 1-2,14 (24)
same,"TEAE Cough, patients n (%)",[1]; Grades 1-2,9 (16)
same,"TEAE Decreased appetite, patients n (%)",[1]; Grades 1-2,18 (31)
same,"TEAE Diarrhea, patients n (%)",[1]; Grades 1-2,35 (60)
same,"TEAE Dizziness, patients n (%)",[1]; Grades 1-2,8 (14)
same,"TEAE Dyspnea, patients n (%)",[1]; Grades 1-2,6 (10)
same,"TEAE Edema peripheral, patients n (%)",[1]; Grades 1-2,6 (10)
same,"TEAE Fatigue, patients n (%)",[1]; Grades 1-2,18 (31)
same,"TEAE Hypokalemia, patients n (%)",[1]; Grades 1-2,7 (12)
same,"TEAE Hypomagnesaemia, patients n (%)",[1]; Grades 1-2,7 (12)
same,"TEAE Hypophosphatemia, patients n (%)",[1]; Grades 1-2,2 (3)
same,"TEAE Lymphocyte count decreased, patients n (%)",[1]; Grades 1-2,3 (5)
same,"TEAE Nausea, patients n (%)",[1]; Grades 1-2,30 (52)
same,"TEAE Neutropenia, patients n (%)",[1]; Grades 1-2,2 (3)
same,"TEAE Pain in extremity, patients n (%)",[1]; Grades 1-2,6 (10)
same,"TEAE Pyrexia, patients n (%)",[1]; Grades 1-2,9 (16)
same,"TEAE Thrombocytopenia, patients n (%)",[1]; Grades 1-2,8 (14)
same,"TEAE Upper respiratory tract infection, patients n (%)",[1]; Grades 1-2,6 (10)
same,"TEAE Vomiting, patients n (%)",[1]; Grades 1-2,15 (26)
same,"TEAE Weight decreased, patients n (%)",[1]; Grades 1-2,7 (12)
same,"TEAE White blood cell count decreased, patients n (%)",[1]; Grades 1-2,3 (5)
same,"Diarrhea, frequency",[1]; TEAE of any grade,72%
same,"Nausea, frequency",[1]; TEAE of any grade,52%
same,"Thrombocytopenia, frequency",[1]; TEAE of any grade,38%
same,"TEAE Abdominal pain, patients n (%)",[1]; Total,9 (16)
same,"TEAE Anemia, patients n (%)",[1]; Total,13 (22)
same,"TEAE Arthralgia, patients n (%)",[1]; Total,7 (12)
same,"TEAE Back pain, patients n (%)",[1]; Total,6 (10)
same,"TEAE Constipation, patients n (%)",[1]; Total,14 (24)
same,"TEAE Cough, patients n (%)",[1]; Total,9 (16)
same,"TEAE Decreased appetite, patients n (%)",[1]; Total,18 (31)
same,"TEAE Diarrhea, patients n (%)",[1]; Total,42 (72)
same,"TEAE Dizziness, patients n (%)",[1]; Total,8 (14)
same,"TEAE Dyspnea, patients n (%)",[1]; Total,9 (16)
same,"TEAE Edema peripheral, patients n (%)",[1]; Total,6 (10)
same,"TEAE Fatigue, patients n (%)",[1]; Total,19 (33)
same,"TEAE Hypokalemia, patients n (%)",[1]; Total,13 (22)
same,"TEAE Hypomagnesaemia, patients n (%)",[1]; Total,7 (12)
same,"TEAE Hypophosphatemia, patients n (%)",[1]; Total,6 (10)
same,"TEAE Lymphocyte count decreased, patients n (%)",[1]; Total,6 (10)
same,"TEAE Nausea, patients n (%)",[1]; Total,30 (52)
same,"TEAE Neutropenia, patients n (%)",[1]; Total,11 (19)
same,"TEAE Pain in extremity, patients n (%)",[1]; Total,7 (12)
same,"TEAE Pyrexia, patients n (%)",[1]; Total,10 (17)
same,"TEAE Thrombocytopenia, patients n (%)",[1]; Total,22 (38)
same,"TEAE Upper respiratory tract infection, patients n (%)",[1]; Total,6 (10)
same,"TEAE Vomiting, patients n (%)",[1]; Total,16 (28)
same,"TEAE Weight decreased, patients n (%)",[1]; Total,8 (14)
same,"TEAE White blood cell count decreased, patients n (%)",[1]; Total,7 (12)
same,"Non-evaluable patients who discontinued treatment due to TEAE, number","[1]; grade 2 vomiting (related), grade 4 hypercalcemia (unlikely related)",Two
same,"Anemia, frequency",[1]; grade 3 or 4,12%
same,"Diarrhea, frequency",[1]; grade 3 or 4,12%
same,"Most common grade 3 or 4 adverse event (event name not given), frequency",[1]; grade 3 or 4,24%
same,"Neutropenia, frequency",[1]; grade 3 or 4,15%
same,"Patients who experienced grade 5 TEAE, number","[1]; respiratory failure, sepsis, tracheal obstruction, unlikely or not related to treatment",Three
same,Overall response rate,[2]; central or local testing,64%
same,Estimated duration of response,[2],13.6 month
same,Preclinical activity compared to HDAC or PI3K inhibitor monotherapy,[3],superior preclinical activity
